Measurements published in patent US20070243201A1, “Method for Selecting Epitopes for Immunotherapy” (Igeneon Krebs-Immuntherapie Forschungs-und entwicklungs-AG, priority 2003, published 2007).

System: immune serum
Assay: Ep-CAM epitope mapping by solid phase peptide (spot) synthesis: binding of biotinylated serum IgG to immobilized decapeptides
Settings: immune serum of a patient after active immunotherapy with mAb17-1A (EpCAM antibody), taken 71 days after immunization; compared with pre-serum of day 1, which does not show this binding or shows it to a slight degree only; FIG. 1
Experimental: Protein G Sepharose Fast Flow (Amersham Biosciences) was packed into an HR 5 column (inner diameter 5 mm; Amersham Biosciences). The column was equilibrated with 5 column volumes of PBS buffer at a flow rate of 0.33 ml/min. Subsequently, serum was loaded at the same flow rate, followed by washing with further 5 column volumes. Elution was carried out with 0.2 M acetic acid +20% ethylene glycol, pH 2.7. The eluate was taken up in 1 M sodium bicarbonate buffer and thus brought to pH 8.6.
One aliquot of the purified serum was incubated with NHS-LC biotin for 1 h at room temperature. Subsequently, the sample was re-buffered via a Sephadex G25 gel filtration column (PD-10, Amersham Biosciences) so as to separate the biotinylated […] from free […], on the one hand, and to further transfer it into a medium suitable for the test system.
The spot synthesis was carried out by means of a modified method according to Frank (Tetrahedron 48 (1992) 9217-9232). Whatman 540 cellulose was dried over night in the desiccator. The membrane was then functionalized for 3 h with 0.2 M Fmoc-β alanine, 0.24 M diisopropyl carbodiimide and 0.4 M 1-methyl-imidazole. After washing with 3× dimethylformamide (DMF), the Fmoc group was cleaved off by treatment with 20% piperidine in DMF. The peptides were synthesized by means of the AutoSpot Robot ASP222 (INTAVIS, Germany). As the first amino acid, always a further β-alanine spacer was introduced. After the first β-alanine coupling, the remaining free amino groups were acetylated with 2% acetic anhydride. As the amino acids, Fmoc-protected Opfp esters of the amino acids (O-pentafluorophenyl, Novabiochem), dissolved in N-methyl pyrrolidone at a concentration of 0.3 M were used. Each amino acid was spotted twice per cycle. After each cycle, the Fmoc group was cleaved off with piperidine, as described above, and then the membrane was washed 6× with DMF. After the synthesis of the last amino acid, it was again acetylated, and then the side protection groups were cleaved off. At first, the membrane was treated with 90% trifluoroacetic acid, 3% triisobutyl silane, 1% phenol, 2% water and 4% dichloromethane for 30 minutes. Subsequently, the membrane was washed 5× with DCM, 3× with DMF and methanol and dried. This was followed by a further cleavage by treatment with 50% trifluoroacetic acid, 3% triisobutyl silane, 1% phenol, 2% water and 44% dichloromethane for two hours. […]
Since the major immune response is provided in the form of IgG, IgG was purified from the sera via protein G Sepharose. […] The concentration of the biotinylated IgG was determined via photometric absorption measurement at 280 nm, and after the addition of 0.2% sodium azide the material was stored at 4° C. […]

Row | Sequence | binding of immune serum to the 10 mer peptides
1 | ALQKEITTRY [compound 42] | increasingly binds
2 | DLDPGQTLIY [compound 61] | increasingly binds
3 | DPKFITSILY [compound 45] | increasingly binds
4 | IADVAYYFEK [compound 53] | increasingly binds
